The record followed here is patent publication US20030135173A1 (priority 2001, published 2003).

Where two headings read alike, the source gives them in different places.

The test system of one test is S. aureus (MN8). Put plainly: microbe, parasite or virus in culture. The conditions noted are these: Staphylococcus aureus; for inhibition at 0.2 %: 0.2% test compound; for inhibition at 0.5 %: 0.5% test compound. It is filed as cell-based.
For test [1], the system named is S. aureus FRI-1187. Format: cell-based, Staphylococcus aureus.
For another test, the system named is S. aureus strain RN 6390. It is filed as cell-based, Staphylococcus aureus.
The subject of test [2] is S. aureus FRI-1187. It is filed as cell-based, Staphylococcus aureus. This is another data set of the same source.
For the next test, the system named is S. aureus FRI-1169. Format: cell-based, Staphylococcus aureus.
Where [3] appears, read: read-out: Reduction of Toxin %, Table 2.
[4] abbreviates: read-out: Reduction of Toxin %, Table 4.
[5] abbreviates: read-out: Reduction of Toxin %, Table 3.

For `O=C(O)c1ccccc1O` [2-hydroxybenzoic acid], the inhibition at 0.2 % in the test on S. aureus (MN8) (setting [3]) worked out at 93%.

Turning to `CC(=O)Nc1ccc(O)cc1` [4-Acetamidophenol], in the test on S. aureus (MN8) (setting [4]), the inhibition at 0.5 % was 79%.

As for `CC(=O)N[C@@H](Cc1ccc(O)cc1)C(=O)O` [Acetyl tyrosine], the inhibition at 0.5 % in the test with S. aureus (MN8) (setting [5]) was 69%.

On to `O=C(O)c1cc(O)c(O)c(O)c1` [Gallic acid], for which the inhibition at 0.5 % in the test on S. aureus (MN8) (setting [5]) amounted to 95%.

For the molecule `OCCc1ccccc1` [Phenylethyl alcohol], the “amount of exotoxin production” value with S. aureus FRI-1187 [1] was “significantly reduced”. In the test with S. aureus strain RN 6390, the “production of the alpha toxin” value is on record as “significantly reduced”. Also, the “effect on the growth of S. aureus cells” value in the test on S. aureus FRI-1187 [2] is recorded as “minimal, if any, effect”; in the test with S. aureus FRI-1169, “minimal, if any, effect”. Also, the inhibition at 0.5 % in the test on S. aureus (MN8) (setting [3]) was determined as 97%; with S. aureus (MN8) (setting [5]) it was 98%; with S. aureus (MN8) (setting [4]) it was 98%.

For the molecule `O=C(O)/C=C/c1ccccc1` [Trans-cinnamic acid], in the test with S. aureus (MN8) (setting [5]), the inhibition at 0.5 % is 82%.

For `Nc1ccc(C(=O)O)cc1` [p-aminobenzoic acid], the inhibition at 0.2 % in the test with S. aureus (MN8) (setting [3]) is 89%.

With `COC(=O)c1ccc(O)cc1` [p-hydroxybenzoic acid, methyl ester], the “production of the alpha toxin” value with S. aureus strain RN 6390 is given as “significantly reduced”. Moreover, in the test on S. aureus (MN8) (setting [3]), the inhibition at 0.2 % was 82%.
